Laboratory results from PubChem BioAssay AID1259411 (Chemical Carcinogenesis Research Information System (CCRIS), 2018).
Active and inactive are the calls of the source. The rule behind the calls is not given here.

Test system: rodent carcinogenicity bioassays, tumor incidence
Assay: CCRIS carcinogenicity studies
Method in brief: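 NCI-built, expert-reviewed records of carcinogenicity and related test outcomes (mutagenicity, tumor promotion/inhibition) compiled from published and report sources, historical span 1985-2011, not updated.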

COc1ccc(CCN2CCC(Nc3nc4ccccc4n3Cc3ccc(F)cc3)CC2)cc1
carcinogen call (Species: MOUSE, Strain/Sex: SWISS/FEMALE, Route: ORAL, Dose: 0, 2.5, 10, 40 MG/100 G OF DIET FOR DURATION OF STUDY (STUDY DURATION: 18 Mo), Dose: 0, 2.5, 10, 40 MG/100 G OF DIET FOR DURATION OF STUDY (STUDY DURATION: 18 Mo)): inactive; negative | carcinogen call (Species: MOUSE, Strain/Sex: SWISS/MALE, Route: ORAL, Dose: 0, 2.5, 10, 40 MG/100 G OF DIET FOR DURATION OF STUDY (STUDY DURATION: 18 MO), Dose: 0, 2.5, 10, 40 MG/100 G OF DIET FOR DURATION OF STUDY (STUDY DURATION: 18 MO)): inactive; negative | carcinogen call (Species: RAT, Strain/Sex: WISTAR/FEMALE, Route: ORAL, Dose: 0, 5, 20, 80 MG/100 G OF DIET FOR DURATION OF STUDY (STUDY DURATION: 2 YR), Dose: 0, 5, 20, 80 MG/100 G OF DIET FOR DURATION OF STUDY (STUDY DURATION: 2 YR)): inactive; negative | carcinogen call (Species: RAT, Strain/Sex: WISTAR/MALE, Route: ORAL, Dose: 0, 5, 20, 80 MG/100 G OF DIET FOR DURATION OF STUDY (STUDY DURATION: 2 YR), Dose: 0, 5, 20, 80 MG/100 G OF DIET FOR DURATION OF STUDY (STUDY DURATION: 2 YR)): inactive; negative

NCC(=O)O
carcinogen call (Species: RAT, Strain/Sex: F344/FEMALE, Route: ORAL, Dose: 0, 2.5, 5% IN DRINKING WATER FOR 108 WK (STUDY DURATION: 108 WK), Dose: 0, 2.5, 5% IN DRINKING WATER FOR 108 WK (STUDY DURATION: 108 WK)): inactive; negative | carcinogen call (Species: RAT, Strain/Sex: F344/MALE, Route: ORAL, Dose: 0, 2.5, 5% IN DRINKING WATER FOR 108 WK (STUDY DURATION: 108 WK), Dose: 0, 2.5, 5% IN DRINKING WATER FOR 108 WK (STUDY DURATION: 108 WK)): inactive; negative

CCCC(CCC)C(=O)O
carcinogen call (Species: RAT, Strain/Sex: WISTAR/FEMALE, Route: ORAL, Dose: 0, 125, 250, 500 MG/KG BW IN DIET FOR 104 WK (STUDY DURATION: 104 WK), Dose: 0, 125, 250, 500 MG/KG BW IN DIET FOR 104 WK (STUDY DURATION: 104 WK), Tumor Site: Type of Lesion: UTERUS: ADENOCARCINOMA): active; positive | carcinogen call (Species: RAT, Strain/Sex: WISTAR/MALE, Route: ORAL, Dose: 0, 125, 250, 500 MG/KG BW IN DIET FOR 104 WK (STUDY DURATION: 104 WK), Dose: 0, 125, 250, 500 MG/KG BW IN DIET FOR 104 WK (STUDY DURATION: 104 WK)): inactive; negative

CC(=O)OCc1c2ccccc2c2ccc3cccc4ccc1c2c43
carcinogen call (Species: MOUSE, Strain/Sex: B6C3F1/MALE, Route: INTRAPERITONEAL, Dose: 0, 0.0025, 0.005 UMOL/G ONCE AT 12 DAYS OF AGE (STUDY DURATION: 10 MO), Dose: 0, 0.0025, 0.005 UMOL/G ONCE AT 12 DAYS OF AGE (STUDY DURATION: 10 MO), Tumor Site: Type of Lesion: LIVER: HEPATOMA): active; positive

CNNCc1ccc(C(=O)NC(C)C)cc1
carcinogen call (Species: MOUSE, Strain/Sex: B6C3F1/FEMALE, Route: INTRAPERITONEAL, Dose: 0, 6, 12 MG/KG IN BUFFERED SALINE 3/WK FOR 52 WK (STUDY DURATION: 67-85 WK), Dose: 0, 6, 12 MG/KG IN BUFFERED SALINE 3/WK FOR 52 WK (STUDY DURATION: 67-85 WK), Tumor Site: Type of Lesion: LUNG: ALVEOLAR/BRONCHIOLAR ADENOMA, HEMATOPOIETIC SYSTEM (LEUKEMIA), LYMPHATIC SYSTEM: LYMPHOMA, UTERUS: ADENOCARCINOMA, Tumor Site: Type of Lesion: LUNG: ALVEOLAR/BRONCHIOLAR ADENOMA, HEMATOPOIETIC SYSTEM (LEUKEMIA), LYMPHATIC SYSTEM: LYMPHOMA, UTERUS: ADENOCARCINOMA): active; positive | carcinogen call (Species: MOUSE, Strain/Sex: B6C3F1/MALE, Route: INTRAPERITONEAL, Dose: 0, 6, 12 MG/KG IN BUFFERED SALINE 3/WK FOR 52 WK (STUDY DURATION: 67-85 WK), Dose: 0, 6, 12 MG/KG IN BUFFERED SALINE 3/WK FOR 52 WK (STUDY DURATION: 67-85 WK), Tumor Site: Type of Lesion: LUNG: ALVEOLAR/BRONCHIOLAR ADENOMA OR CARCINOMA, HEMATOPOIETIC SYSTEM (LEUKEMIA), LYMPHATIC SYSTEM: LYMPHOMA, BRAIN: OLF, Tumor Site: Type of Lesion: LUNG: ALVEOLAR/BRONCHIOLAR ADENOMA OR CARCINOMA, HEMATOPOIETIC SYSTEM (LEUKEMIA), LYMPHATIC SYSTEM: LYMPHOMA, BRAIN: OLF): active; positive | carcinogen call (Species: RAT, Strain/Sex: BR46/MALE, Route: INTRAVENOUS, Dose: 24 MG/KG 1/WK FOR 52 WK, Tumor Site: Type of Lesion: MULTIPLE SITES: BENIGN TUMOR OR MALIGNANT TUMOR): active; positive | carcinogen call (Species: RAT, Strain/Sex: SPRAGUE-DAWLEY/FEMALE, Route: INTRAPERITONEAL, Dose: 0, 15, 30 MG/KG IN BUFFERED SALINE 3/WK FOR 26 WK (STUDY DURATION: 31-86 WK), Dose: 0, 15, 30 MG/KG IN BUFFERED SALINE 3/WK FOR 26 WK (STUDY DURATION: 31-86 WK), Tumor Site: Type of Lesion: LYMPHATIC SYSTEM: MALIGNANT LYMPHOMA, MAMMARY GLAND: ADENOMA (NOS) OR ADENOCARCINOMA (NOS), BRAIN (CEREBRUM): OLFACTORY, Tumor Site: Type of Lesion: LYMPHATIC SYSTEM: MALIGNANT LYMPHOMA, MAMMARY GLAND: ADENOMA (NOS) OR ADENOCARCINOMA (NOS), BRAIN (CEREBRUM): OLFACTORY): active; positive | carcinogen call (Species: RAT, Strain/Sex: SPRAGUE-DAWLEY/MALE, Route: INTRAPERITONEAL, Dose: 0, 15, 30 MG/KG IN BUFFERED SALINE 3/WK FOR 26 WK (STUDY DURATION: 43-86 WK), Dose: 0, 15, 30 MG/KG IN BUFFERED SALINE 3/WK FOR 26 WK (STUDY DURATION: 43-86 WK), Tumor Site: Type of Lesion: HEMATOPOIETIC SYSTEM (LEUKEMIA), LYMPHATIC SYSTEM: MALIGNANT LYMPHOMA, MAMMARY GLAND: ADENOMA (NOS) OR ADENOSARCOMA (NOS, Tumor Site: Type of Lesion: HEMATOPOIETIC SYSTEM (LEUKEMIA), LYMPHATIC SYSTEM: MALIGNANT LYMPHOMA, MAMMARY GLAND: ADENOMA (NOS) OR ADENOSARCOMA (NOS): active; positive

CCC(Cl)C(Cl)C(Cl)CC(Cl)C(Cl)C(C)Cl (stereo not given)
carcinogen call (Species: MOUSE, Strain/Sex: B6C3F1/FEMALE, Route: GAVAGE, Dose: 0, 125, 250 MG/KG IN CORN OIL 5 D/WK FOR 103 WK, Dose: 0, 125, 250 MG/KG IN CORN OIL 5 D/WK FOR 103 WK, Tumor Site: Type of Lesion: LIVER: HEPATOCELLULAR ADENOMA, HEPATOCELLULAR ADENOMA OR CARCINOMA, THYROID GLAND: FOLLICULAR CELL ADENOMA, FOLLICULAR C): active; positive | carcinogen call (Species: MOUSE, Strain/Sex: B6C3F1/MALE, Route: GAVAGE, Dose: 0, 125, 250 MG/KG IN CORN OIL 5 D/WK FOR 103 WK, Dose: 0, 125, 250 MG/KG IN CORN OIL 5 D/WK FOR 103 WK, Tumor Site: Type of Lesion: LIVER: HEPATOCELLULAR ADENOMA, HEPATOCELLULAR ADENOMA OR CARCINOMA): active; positive | carcinogen call (Species: RAT, Strain/Sex: F344/FEMALE, Route: GAVAGE, Dose: 0, 312, 625 MG/KG IN CORN OIL 5 D/WK FOR 104 WK, Dose: 0, 312, 625 MG/KG IN CORN OIL 5 D/WK FOR 104 WK, Tumor Site: Type of Lesion: LIVER: NEOPLASTIC NODULE, NEOPLASTIC NODULE OR HEPATOCELLULAR CARCINOMA, THYROID GLAND: FOLLICULAR CELL ADENOMA OR CARCI): active; positive | carcinogen call (Species: RAT, Strain/Sex: F344/MALE, Route: GAVAGE, Dose: 0, 312, 625 MG/KG IN CORN OIL 5 D/WK FOR 104 WK, Dose: 0, 312, 625 MG/KG IN CORN OIL 5 D/WK FOR 104 WK, Tumor Site: Type of Lesion: LIVER: NEOPLASTIC NODULE, NEOPLASTIC NODULE OR HEPATOCELLULAR CARCINOMA, KIDNEY: TUBULAR CELL ADENOMA OR ADENOCARCINOMA): active; positive

c1ccc2c(c1)cc1c3ccccc3c3cccc4ccc2c1c43
carcinogen call (Species: MOUSE, Route: DERMAL, Tumor Site: Type of Lesion: INTEGUMENTARY SYSTEM (SKIN)): active; positive | carcinogen call (Species: MOUSE, Route: SUBCUTANEOUS, Tumor Site: Type of Lesion: INJECTION SITE): active; positive
